# Data: patent US20250197407A1 (Jazz Pharmaceuticals Ireland Limited, priority 2022, published 2025)
# Biological target: SOS1/KRAS WT (Homo sapiens (Human), UniProt Q07889)
# Experiment: SOS1/KRAS WT HTRF binding assay (FRET-based protein-protein interaction)
# Settings: inhibition of His6-SOS1 (aa564-1049, 40 nM) binding to GST-KRAS-WT (aa1-188, 40 nM); at least two independent replicates; read-out: SOS1/KRAS WT HTRF Binding assay pIC50 (converted)
# Procedure, shortened: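 GST-KRAS WT (aa1-188, 40 nM) and His6-SOS1 exchange domain (aa564-1049, 40 nM) were incubated 60 min at room temperature with compound dose response in HEPES pH7.3 buffer with 10 mM EDTA and 100 mM KF. Anti-GST-Eu(K)/anti-6His-XL665 HTRF was read after 4 hr, and IC50 came from a four-parameter fit (≥2 replicates).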
# SOS1/KRAS WT, sequence (Q07889 564-1049): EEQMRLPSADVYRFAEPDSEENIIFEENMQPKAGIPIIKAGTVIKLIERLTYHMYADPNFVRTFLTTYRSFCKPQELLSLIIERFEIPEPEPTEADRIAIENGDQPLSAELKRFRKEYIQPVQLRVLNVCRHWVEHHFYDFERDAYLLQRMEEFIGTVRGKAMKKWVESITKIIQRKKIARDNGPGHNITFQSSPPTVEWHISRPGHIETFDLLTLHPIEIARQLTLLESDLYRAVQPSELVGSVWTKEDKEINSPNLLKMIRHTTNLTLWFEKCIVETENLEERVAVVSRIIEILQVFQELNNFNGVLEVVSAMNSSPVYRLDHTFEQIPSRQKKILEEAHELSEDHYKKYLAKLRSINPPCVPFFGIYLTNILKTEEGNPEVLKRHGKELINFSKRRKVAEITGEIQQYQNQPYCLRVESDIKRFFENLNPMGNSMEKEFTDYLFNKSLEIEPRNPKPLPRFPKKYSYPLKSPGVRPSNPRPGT
row,SMILES,IC50
1,"Cc1c([C@@H](C)Nc2nnc(C)c3cc4c(cc23)N(C2CC2)C(=O)C4(C)C)cccc1C(F)(F)C(C)(C)O [Compound 127, 1-cyclopropyl-3,3,5-trimethyl-8-[[(1R)-1-[3-(1,1-difluoro-2-hydroxy-2-methyl-propyl)-2-methyl-phenyl]ethyl]amino]pyrrolo[2,3-g]phthalazin-2-one]",0.0129 µM
2,"Cc1nnc(N[C@H](C)c2cccc(C(F)(F)CO)c2)c2cc3c(cc12)N(C)C(=O)C31CCOCC1 [Compound 128, 1,8-dimethyl-5-[[(1R)-1-[3-(1,1-difluoro-2-hydroxy-ethyl)phenyl]ethyl]amino]spiro [pyrrolo[3,2-g]phthalazine-3,4′-tetrahydropyran]-2-one]",0.00631 µM
3,"Cc1c([C@@H](C)Nc2nnc(C)c3cc4c(cc23)C2(CCOCC2)C(=O)N4C)cccc1C(F)(F)CO [Compound 129, 1,8-dimethyl-5-[[(1R)-1-[3-(1,1-difluoro-2-hydroxy-ethyl)-2-methyl-phenyl]ethyl]amino]spiro[pyrrolo [3,2-g]phthalazine-3,4′-tetrahydropyran]-2-one]",0.00661 µM
4,"Cc1c([C@@H](C)Nc2nnc(C)c3cc4c(cc23)C2(CCOCC2)C(=O)N4C)cccc1C(F)(F)C(C)(C)O [Compound 131, 1,8-dimethyl-5-[[(1R)-1-[3-(1,1-difluoro-2-hydroxy-2-methyl-propyl)-2-methyl-phenyl]ethyl]amino]spiro[pyrrolo [3,2-g]phthalazine-3,4′-tetrahydropyran]-2-one]",0.00794 µM
5,"CCOC1(C)C(=O)N(C)c2cc3c(N[C@H](C)c4cccc(C(F)(F)C(C)(C)O)c4F)nnc(C)c3cc21 (stereo partly drawn) [Compound 132, 3-ethoxy-1,3,5-trimethyl-8-[[(1R)-1-[3-(1,1-difluoro-2-hydroxy-2-methyl-propyl)-2-fluoro-phenyl]ethyl]amino]pyrrolo[2,3-g]phthalazin-2-one]",0.00794 µM
6,"CCOC1(C)C(=O)N(C)c2cc3c(N[C@H](C)c4cccc(C(F)(F)CO)c4)nnc(C)c3cc21 (stereo partly drawn) [Compound 133, 3-ethoxy-1,3,5-trimethyl-8-[[(1R)-1-[3-(1,1-difluoro-2-hydroxy-ethyl)phenyl]ethyl]amino]pyrrolo [2,3-g]phthalazin-2-one]",0.00851 µM
7,"CCOC1(C)C(=O)N(C)c2cc3c(N[C@H](C)c4cccc(C(F)(F)CO)c4C)nnc(C)c3cc21 (stereo partly drawn) [Compound 134, 3-ethoxy-1,3,5-trimethyl-8-[[(1R)-1-[3-(1,1-difluoro-2-hydroxy-ethyl)-2-methyl-phenyl]ethyl]amino]pyrrolo[2,3-g]phthalazin-2-one]",0.00617 µM
8,"CCOC1(C)C(=O)N(C)c2cc3c(N[C@H](C)c4cccc(C(F)(F)CO)c4F)nnc(C)c3cc21 (stereo partly drawn) [Compound 135, 3-ethoxy-1,3,5-trimethyl-8-[[(1R)-1-[3-(1,1-difluoro-2-hydroxy-ethyl)-2-fluoro-phenyl]ethyl]amino]pyrrolo[2,3-g]phthalazin-2-one]",0.01 µM
9,"COCC1(C)C(=O)N(C2CC2)c2cc3c(N[C@H](C)c4cccc(C(F)(F)C(C)(C)O)c4F)nnc(C)c3cc21 (stereo partly drawn) [Compound 136, 1-cyclopropyl-8-[[(1R)-1-[3-(1,1-difluoro-2-hydroxy-2-methyl-propyl)-2-fluoro-phenyl]ethyl]amino]-3-(methoxymethyl)-3,5-dimethyl-pyrrolo[3,2-g]phthalazin-2-one]",0.0141 µM
10,"COCC1(C)C(=O)N(C2CC2)c2cc3c(N[C@H](C)c4cccc(C(F)(F)C(C)(C)O)c4C)nnc(C)c3cc21 (stereo partly drawn) [Compound 137, 1-cyclopropyl-8-[[(1R)-1-[3-(1,1-difluoro-2-hydroxy-2-methyl-propyl)-2-methyl-phenyl]ethyl]amino]-3-(methoxymethyl)-3,5-dimethyl-pyrrolo[3,2-g]phthalazin-2-one]",0.0158 µM
11,"COCC1(C)C(=O)N(C2CC2)c2cc3c(N[C@H](C)c4cccc(C(F)(F)CO)c4F)nnc(C)c3cc21 (stereo partly drawn) [Compound 138, 1-cyclopropyl-8-[[(1R)-1-[3-(1,1-difluoro-2-hydroxy-ethyl)-2-fluoro-phenyl]ethyl]amino]-3-(methoxymethyl)-3,5-dimethyl-pyrrolo[3,2-g]phthalazin-2-one]",0.00661 µM
12,"COC1(C)C(=O)N(C2CC2)c2cc3c(N[C@H](C)c4cccc(C(F)(F)C(C)(C)O)c4F)nnc(C)c3cc21 (stereo partly drawn) [Compound 139, 1-cyclopropyl-3-methoxy-3,5-dimethyl-8-[[(1R)-1-[3-(1,1-difluoro-2-hydroxy-2-methyl-propyl)-2-fluoro-phenyl]ethyl]amino]pyrrolo[2,3-g]phthalazin-2-one]",0.011 µM
13,"COC1(C)C(=O)N(C2CC2)c2cc3c(N[C@H](C)c4cccc(C(F)(F)C(C)(C)O)c4C)nnc(C)c3cc21 (stereo partly drawn) [Compound 140, 1-cyclopropyl-3-methoxy-3,5-dimethyl-8-[[(1R)-1-[3-(1,1-difluoro-2-hydroxy-2-methyl-propyl)-2-methyl-phenyl]ethyl]amino]pyrrolo[2,3-g]phthalazin-2-one]",0.0155 µM
14,"COC1(C)C(=O)N(C)c2cc3c(N[C@H](C)c4cc(F)cc(C(F)(F)CO)c4F)nnc(C)c3cc21 (stereo partly drawn) [Compound 141, 3-methoxy-1,3,5-trimethyl-8-[[(1R)-1-[3-(1,1-difluoro-2-hydroxy-ethyl)-2,5-difluoro-phenyl]ethyl]amino]pyrrolo[2,3-g]phthalazin-2-one]",0.02 µM
15,"COC1(C)C(=O)N(C2CC2)c2cc3c(N[C@H](C)c4cccc(C(F)(F)CO)c4)nnc(C)c3cc21 (stereo partly drawn) [Compound 142, 1-cyclopropyl-3-methoxy-3,5-dimethyl-8-[[(1R)-1-[3-(1,1-difluoro-2-hydroxy-ethyl)phenyl]ethyl]amino]pyrrolo [2,3-g]phthalazin-2-one]",0.0129 µM
16,"COC1(C)C(=O)N(C2CC2)c2cc3c(N[C@H](C)c4cccc(C(F)(F)CO)c4C)nnc(C)c3cc21 (stereo partly drawn) [Compound 143, 1-cyclopropyl-3-methoxy-3,5-dimethyl-8-[[(1R)-1-[3-(1,1-difluoro-2-hydroxy-ethyl)-2-methyl-phenyl]ethyl]amino]pyrrolo[2,3-g]phthalazin-2-one]",0.011 µM
17,"Cc1nnc(N[C@H](C)c2cccc(C(F)(F)F)c2)c2cc3c(cc12)n(C)c(=O)n3C1CCOC1 (stereo partly drawn) [Compound 144, 1,8-dimethyl-3-tetrahydrofuran-3-yl-5-[[(1R)-1-[3-(trifluoromethyl)phenyl]ethyl]amino]imidazo[4,5-g]phthalazin-2-one]",0.0117 µM
18,"Cc1nnc(N[C@H](C)c2cccc(C(F)(F)F)c2)c2cc3[nH]c(=O)n(C)c3cc12 [Compound 145, 1,8-dimethyl-5-[[(1R)-1-[3-(trifluoromethyl)phenyl]ethyl]amino]-3H-imidazo[4,5-g]phthalazin-2-one]",0.0661 µM
19,"Cc1nnc(N[C@H](C)c2cccc(C(F)F)c2F)c2cc3c(cc12)n(C)c(=O)n3[C@H]1CCOC1 [Compound 146, 5-[[(1R)-1-[3-(difluoromethyl)-2-fluoro-phenyl]ethyl]amino]-1,8-dimethyl-3-[(3S)-tetrahydrofuran-3-yl]imidazo[4,5-g]phthalazin-2-one]",0.0123 µM
20,"Cc1nnc(N[C@H](C)c2cccc(C(F)F)c2F)c2cc3c(cc12)n(C)c(=O)n3C1COC1 [Compound 147, 5-[[(1R)-1-[3-(difluoromethyl)-2-fluoro-phenyl]ethyl]amino]-1,8-dimethyl-3-(oxetan-3-yl)imidazo[4,5-g]phthalazin-2-one]",0.0123 µM
21,"Cc1nnc(N[C@H](C)c2cccc(C(F)(F)F)c2)c2cc3c(cc12)n(C)c(=O)n3CC#N [Compound 148, 2-[1,8-dimethyl-2-oxo-5-[[(1R)-1-[3-(trifluoromethyl)phenyl]ethyl]amino]imidazo[4,5-g]phthalazin-3-yl]acetonitrile]",0.0214 µM
22,"Cc1nnc(N[C@H](C)c2cccc(C(F)(F)F)c2)c2cc3c(cc12)n(C)c(=O)n3C(C)C#N (stereo partly drawn) [Compound 149, 2-[1,8-dimethyl-2-oxo-5-[[(1R)-1-[3-(trifluoromethyl)phenyl]ethyl]amino]imidazo[4,5-g]phthalazin-3-yl]propanenitrile]",0.0102 µM
23,"Cc1c(-c2ccnn2C)cccc1[C@@H](C)Nc1nnc(C)c2cc3c(cc12)n(C)c(=O)n3C [Compound 150, 1,3,8-trimethyl-5-[[(1R)-1-[2-methyl-3-(2-methylpyrazol-3-yl)phenyl]ethyl]amino]imidazo[4,5-g]phthalazin-2-one]",0.00891 µM
24,"Cc1c(-c2ccn(C)n2)cccc1[C@@H](C)Nc1nnc(C)c2cc3c(cc12)n(C)c(=O)n3C [Compound 151, 1,3,8-trimethyl-5-[[(1R)-1-[2-methyl-3-(1-methylpyrazol-3-yl)phenyl]ethyl]amino]imidazo[4,5-g]phthalazin-2-one]",0.011 µM
25,"Cc1c(-c2cc(C(F)(F)F)nn2C)cccc1[C@@H](C)Nc1nnc(C)c2cc3c(cc12)n(C)c(=O)n3C [Compound 152, 1,3,8-trimethyl-5-[[(1R)-1-[2-methyl-3-[2-methyl-5-(trifluoromethyl)pyrazol-3-yl]phenyl]ethyl]amino]imidazo[4,5-g]phthalazin-2-one]",0.0851 µM
26,"Cc1c(-c2cncnc2)cccc1[C@@H](C)Nc1nnc(C)c2cc3c(cc12)n(C)c(=O)n3C [Compound 153, 1,3,8-trimethyl-5-[[(1R)-1-(2-methyl-3-pyrimidin-5-yl-phenyl)ethyl]amino]imidazo[4,5-g]phthalazin-2-one]",0.107 µM
27,"Cc1c(C2CC2)cccc1[C@@H](C)Nc1nnc(C)c2cc3c(cc12)n(C)c(=O)n3C [Compound 154, 1,3,8-trimethyl-5-[[(1R)-1-(3-cyclopropyl-2-methyl-phenyl)ethyl]amino]imidazo[4,5-g]phthalazin-2-one]",0.0158 µM
28,"Cc1c(-c2ccn[nH]2)cccc1[C@@H](C)Nc1nnc(C)c2cc3c(cc12)n(C)c(=O)n3C [Compound 155, 1,3,8-trimethyl-5-[[(1R)-1-[2-methyl-3-(1H-pyrazol-5-yl)phenyl]ethyl]amino]imidazo[4,5-g]phthalazin-2-one]",0.0309 µM
